# System: E. coli ΔsseA (3MST-deficient) strain
# Assay type: cell-based
# Details: Table 1; relative values of growth inhibition (negative numbers), ΔsseA vs wt E. coli
row,Compound,ΔsseA inhibition of growth
1,CC(C(=O)O)c1cccc(C(=O)c2ccccc2)c1 (centres unmarked) [Ketoprofen],−468
2,CCCCCCCC[N+](C)(CCCCCCCC)CCCCCCCC.[Cl-] [Methyltrioctylammonium chloride],−326
3,CCCCCCCC(=O)[O-].[Na+] [Sodium caprylate],−346
4,N#CO [Sodium cyanate],−238
5,CC[C@H]1OC(=O)[C@H](C)[C@@H](O[C@H]2C[C@@](C)(OC)[C@@H](O)[C@H](C)O2)[C@H](C)[C@@H](O[C@@H]2O[C@H](C)C[C@H](N(C)C)[C@H]2O)[C@](C)(O)C[C@@H](C)C(=O)[C@H](C)[C@@H](O)[C@]1(C)O [Erythromycin],−468
6,O=C(O)C=Cc1ccccc1 [Cinnamic acid],−204
7,CN(CC[C@H](N)CC(=O)N[C@H]1C=C[C@H](n2ccc(N)nc2=O)O[C@@H]1C(=O)O)C(=N)N [Blasticidin S],−185
8,CN(C)CCCN1c2ccccc2Sc2ccc(Cl)cc21 [Chlorpromazine],−251
9,"CC(C)c1nc2nc(N)nc(N)c2nc1C(C)C [2,4-Diamino-6,7-diisopropylpteridine]",−429
10,Nc1c2ccccc2nc2ccccc12 [9-Aminoacridine],−142
11,CN1CCN(CCCN2c3ccccc3Sc3ccc(C(F)(F)F)cc32)CC1 [Trifluoperazine],−372
12,CCS(=O)(=O)CCn1c([N+](=O)[O-])cnc1C [Tinidazole],−223
13,CCN1CCN(C(=O)N[C@@H](C(=O)N[C@@H]2C(=O)N3C(C(=O)O)=C(CSc4nnnn4C)CS[C@H]23)c2ccc(O)cc2)C(=O)C1=O [Cefoperazone],−159
14,Cc1onc(-c2ccccc2)c1C(=O)N[C@@H]1C(=O)N2[C@@H]1SC(C)(C)[C@@H]2C(=O)O [Oxacillin],−346
